Test results as given in patent US20140309171A1, “MARKER FOR BLOOD COAGULATION” (Universite Catholique De Louvain, priority 2011, published 2014).
“Also recorded” adds a separate entry of the source.

How the values were obtained:
[1] = tested on: Ser79 acetyl-CoA carboxylase (ACC) phosphorylation in human platelets; assay: Western blot of phosphorylated (Ser79) ACC in human platelets; format: cell-based; details: isolated washed human platelets treated with the agonist
Experimental: (§1) Washed human platelets (used in in vitro studies). Platelets were obtained from adult healthy volunteers in accordance with the Ethics Commission of our institution (Commission d'Ethique Biomédicale Hospitalo-Facultaire, Université catholique de Louvain). Whole blood was collected with butterfly needle 21G into Sodium Citrate 1:10 solution (S-monovette). Platelet-rich plasma (PRP) was obtained by 15 min centrifugation at 330 g. The platelets pellet was then washed in Tyrode modified buffer (135 mM NaCl, 12 mM NaHCO3, 1 mM Sodium Citrate, 2.9 mM KCl, 0.3 mM Na2HPO4, 1 mM MgCl2, 5 mM D-glucose, 10 mM Hepes, 0.35% bovine serum albumin (BSA), pH 7.4 at 37° C.) and resuspended to a density of 2.5 10^5 platelets/μl for the measurement of intracellular Ca^2+ or platelet aggregation. For Western Blot analysis, PRP with eptifibatide 4 μg/ml (Integriline, GlaxoSmithKline) and ectonucleotidase apyrase (grade I) 0.5 U/ml was layered over a density barrier of iodixanol (Optiprep®) that allowed the erythrocytes and leucocytes to pellet during centrifugation at 350 g for 15 min. The platelets, because of their small size, sediment much more slowly. After centrifugation at 800 g for 10 min, the resulting pellet was resuspended to a density of 2·10^5 platelets/μl in Tyrode modified buffer before treatment and lysis of samples.
(§2) Proteins were separated as described (Miranda et al. 2010. J Clin Invest 103(6): 879-887). The membranes were probed with the following antibodies: α1/α2 AMPK (Kinasource), phospho-ACC (S79) (1:1000; Cell Signalling), phospho-MLC (S19) (1:10000; Sigma-Aldrich), phospho-VASP (T278) (1:1000; ECM Bioscience), cofilin (Cell Signalling), phospho-cofilin (Ser 3) (Cell Signalling). Bound antibodies were detected by enhanced chemiluminescence (Thermofisher). For each gel, control of loading was realized by immunoblotting using an anti-β-actin (1:10000; Santa Cruz Biotechnology), anti-gelsolin (Santa Cruz Biotechnology) or anti-GAPDH (1:1000; Cell Signalling) antibody after the membranes were stripped. Band intensities were quantified by scanning and processing image intensities with the program ImageJ (1.33 for Mac OS X). The quantification of immunoblots presented in results was obtained after normalization using the internal loading control.
Platelets were isolated from human blood samples as described in the experimental procedures. The isolated platelets were treated with increasing doses of thrombin (0.01, 0.03, 0.1, 0.3 and 1 U/ml), the thromboxane A2 (TXA2) receptor agonist U46619 (0.1, 0.3, 1, 3 and 10 μM), collagen (0.5, 1, 2.5, 5 and 10 μg/ml) or ADP (2.5, 5, 10, 25 nd 50 μM) for 1 min. Following treatment, the platelets were lysed and subjected to Western blotting for determining phosphorylation of Ser79 of ACC.

[2] = tested on: blood coagulation; assay: Activated partial thromboplastin time (aPTT) in cardiac surgery patients; format: in vivo, human
Experimental: (§3) A blood sample was drawn during CPB. […] ACT was measured at the bedside of the patients: a sample of blood was drawn, transferred into an appropriate test vial and the clotting time was measured. The second sample was taken 4 h after surgery and the coagulation was assessed in the same time (activated partial thromboplastin time, apTT; thrombin time, TT). Thrombin time (Thromboclotin™, Siemens, Marburg, Germany) and activated partial thromboplastin time (Platelin L; bioMerieux, France) were measured in a tube containing 0.129 M of trisodium citrate and determined using a coagulation device (MDA II coagulation analyzeer; bioMérieux). After surgery, a chest tube was inserted and a closed chest drainage system was attached to promote drainage of air and fluid. Bleeding was evaluated by the amount of blood collected in the chest tube of drainage over a period of 6 h after admission in intensive cares.

[3] = tested on: blood coagulation; assay: Thrombin time (TT) in cardiac surgery patients; format: in vivo, human
Experimental: as §3

[4] = Post-operative bleeding (chest tube drainage) in cardiac surgery patients; format: in vivo, human; details: patient 6, after restoration of coagulation by protamine administration
Experimental: as §3

[5] = tested on: AMPK; assay: AMPK enzyme assay after immunoprecipitation from platelet extracts; format: cell-based; details: human platelets treated with 0.1 U/ml thrombin
Experimental: AMPK was immunoprecipitated with 10 μg of α1-AMPK or α2-AMPK antibodies (Kinasource) from 50 μg of platelet extracts and assayed in a final volume of 50 μl Hepes 50 mM, pH 7.2, with 0.2 mM SAMS peptide (Substrate for AMP-activated Protein Kinase, Tocris Bioscience), 0.2 mM adenosine 5′-monophosphate (AMP), and 0.1 mM [^32P]MgATP (specific radioactivity: 1000 cpm/pmol; Perkin Elmer) at 30° C. Aliquots (10 μl) were removed and spotted onto Whatman P81 papers for measurement of ^32P incorporation. One unit of protein kinase activity corresponds to the incorporation of 1 nmol of phosphate into the appropriate peptide substrate per min under the assay conditions.
AMPK was immunoprecipitated with anti-α1- and anti-α2-AMPK antibodies prior to AMPK assay. The AMPK catalytic α1-subunit isoform accounted for the total AMPK activity in platelets (FIG. 1B), confirming the immunoblotting results.

[6] = tested on: washed human platelets; assay: Platelet aggregation, light transmission (Chrono-Log Aggregometer); format: cell-based; details: 0.025 U/ml thrombin alone
Experimental: as §1
Light transmission during thrombin-induced platelet aggregation in human and murine PRP was recorded with a Chrono-Log Aggregometer at 37° C., under stirring condition (1200 crpm). The platelet suspension was incubated with dimethyl sulfoxide (DMSO, vehicle) or STO-609 (10 μM, Tocris) for 2 min before the addition of the thrombin (+/−0.03 U/ml). CaCl2 2 mM was added prior to the agonists.
To evaluate the potential implication of CaMKKβ in platelet aggregation, washed human platelets were pre-incubated for 2 min with 10 μM STO-609, prior to treatment with thrombin or ADP.

[7] = tested on: myosin light chain (MLC) Ser 19 phosphorylation; assay: Western blot of MLC Ser19 phosphorylation in human platelets; format: cell-based; details: human platelets, 0.1 U/ml thrombin, significant after 2 min, persisted till 10 min
Experimental: (§4) Washed human platelets (used in in vitro studies). Platelets were obtained from adult healthy volunteers in accordance with the Ethics Commission of our institution (Commission d'Ethique Biomédicale Hospitalo-Facultaire, Université catholique de Louvain). Whole blood was collected with butterfly needle 21G into Sodium Citrate 1:10 solution (S-monovette). Platelet-rich plasma (PRP) was obtained by 15 min centrifugation at 330 g. The platelets pellet was then washed in Tyrode modified buffer (135 mM NaCl, 12 mM NaHCO3, 1 mM Sodium Citrate, 2.9 mM KCl, 0.3 mM Na2HPO4, 1 mM MgCl2, 5 mM D-glucose, 10 mM Hepes, 0.35% bovine serum albumin (BSA), pH 7.4 at 37° C.) and resuspended to a density of 2.5 10^5 platelets/μl for the measurement of intracellular Ca^2+ or platelet aggregation. […]
(§5) Proteins were separated as described (Miranda et al. 2010. J Clin Invest 103(6): 879-887). […] Bound antibodies were detected by enhanced chemiluminescence (Thermofisher). […] Band intensities were quantified by scanning and processing image intensities with the program ImageJ (1.33 for Mac OS X). The quantification of immunoblots presented in results was obtained after normalization using the internal loading control.

[8] = tested on: VASP Thr 278 phosphorylation; assay: Western blot of VASP Thr278 phosphorylation in human platelets; format: cell-based; details: human platelets, 0.1 U/ml thrombin
Experimental: as §4, §5

[9] = tested on: cofilin Ser3 phosphorylation; assay: Western blot of cofilin Ser3 phosphorylation in human platelets; format: cell-based; details: human platelets, 0.1 U/ml thrombin, maximal at 1 min, persisted for 10 min
Experimental: as §4, §5

[10] = tested on: MLC phosphorylation in platelets from WT mice; assay: Western blot of MLC phosphorylation in murine platelets; format: cell-based, mouse; details: thrombin 0.05 U/ml
Experimental: (§6) Eight- to 12-week-old mice were bled under sodium pentobarbital anesthesia (25-35 mg·kg^−1) from the retroorbital plexus. Mouse blood was collected in a 1/10 ACD solution (12 mM citric acid, 15 mM sodium citrate, 25 mM glucose) with ectonucleotidase apyrase (grade I) 0.5 U/ml. PRP was obtained by centrifugation at 800 g for 5 s followed by 5 min at 150 g. PRPs from three animals were pooled. Platelets were washed in Tyrode modified buffer and resuspended to a density of 2.5 10^5 platelets/μl for the measurement of platelet aggregation and for Western Blot analysis. At least three independent experiments were performed on PRP from different pools.
as §2, with “For each gel, control of loading was realized by immunoblotting using an anti-β-actin (1:10000; Santa Cruz Biotechnology), anti-gelsolin (Santa Cruz Biotechnology) or anti-GAPDH (1:1000; Cell Signalling) antibody after the membranes were stripped.” left out

[11] = tested on: VASP phosphorylation in platelets from WT mice; assay: Western blot of VASP phosphorylation in murine platelets; format: cell-based, mouse; details: thrombin 0.05 U/ml
Experimental: as §6
as §2, with “For each gel, control of loading was realized by immunoblotting using an anti-β-actin (1:10000; Santa Cruz Biotechnology), anti-gelsolin (Santa Cruz Biotechnology) or anti-GAPDH (1:1000; Cell Signalling) antibody after the membranes were stripped.” left out

[12] = tested on: cofilin phosphorylation in platelets from WT mice; assay: Western blot of cofilin phosphorylation in murine platelets; format: cell-based, mouse; details: thrombin 0.05 U/ml
Experimental: as §6
as §2, with “For each gel, control of loading was realized by immunoblotting using an anti-β-actin (1:10000; Santa Cruz Biotechnology), anti-gelsolin (Santa Cruz Biotechnology) or anti-GAPDH (1:1000; Cell Signalling) antibody after the membranes were stripped.” left out

[13] = tested on: blood coagulation; assay: Activated coagulation time (ACT) in cardiac surgery patients; format: in vivo, human
Experimental: as §3

[14] = patient 6, after protamine injection
[15] = n = 29 patients, during surgery, after 47086±17766 UI UFH
[16] = patient 1, during surgery, UFH 17000 units
[17] = patient 2, during surgery, UFH 33000 units
[18] = patient 3, during surgery, UFH 25500 units
[19] = patient 4, during surgery, UFH 10000 units
[20] = patient 5, during surgery, UFH 25000 units
[21] = patient 6, during surgery, UFH 41000 units

## Nc1ncnc2c1ncn2[C@@H]1O[C@H](COP(=O)(O)OP(=O)(O)O)[C@@H](O)[C@H]1O [ADP, adenosine diphosphate]
[1]
  Ser79 ACC phosphorylation induced by platelet agonist: not observed; also recorded: not lead to ACC phosphorylation; also recorded: failed to increase

## CCCCC[C@H](O)/C=C/[C@@H]1[C@@H](C/C=C\CCCC(=O)O)[C@H]2CO[C@@H]1C2 [U46619]
[1]
  Ser79 ACC phosphorylation induced by platelet agonist: not observed; also recorded: failed to increase

## collagen
[1]
  Ser79 ACC phosphorylation induced by platelet agonist: not observed; also recorded: failed to increase

## protamine
[2]; [14]
  aPTT: 27 s
[3]; [14]
  TT: 30 s
[4]
  Bleeding: controlled

## thrombin
[1]
  Ser79 ACC phosphorylation induced by platelet agonist: increased; also recorded: specifically induced
[5]
  AMPK activation: led to AMPK activation; also recorded: induces AMPK activation
[6]
  platelet aggregation, % of aggregation: 69±3%
[7]
  MLC Ser 19 phosphorylation induced by agonist: increase
[8]
  VASP phosphorylation on Thr 278 induced by agonist: significant increased phosphorylation
[9]
  cofilin phosphorylation in Ser3 induced by agonist: increase
[10]
  phosphorylation of MLC induced by agonist: increase
[11]
  phosphorylation of VASP induced by agonist: increase
[12]
  phosphorylation of cofilin induced by agonist: increase

## unfractionated heparin [UFH]
[13]; mean of patients 1-6, during surgery, after 25250±11000 UI UFH
  ACT, mean: 568 ± 65 s
[13]; [15]
  ACT, mean: 594 ± 100 s
[13]; [16]
  ACT: 485 s
[13]; [17]
  ACT: 523 s
[13]; [18]
  ACT: 635 s
[13]; [19]
  ACT: 498 s
[13]; [20]
  ACT: 698 s
[13]; [21]
  ACT: 568 s
[2]; [16]
  aPTT: >180 s
[2]; patient 2, 4 h after surgery, UFH 33000 units
  aPTT: >180 s
[2]; [18]
  aPTT: >180 s
[2]; [19]
  aPTT: >180 s
[2]; [20]
  aPTT: >180 s
[2]; [21]
  aPTT: >180 s
[3]; [15]
  TT, mean: >120 s
[3]; [16]
  TT: >120 s
[3]; [17]
  TT: >120 s
[3]; [18]
  TT: >120 s
[3]; [19]
  TT: >120 s
[3]; [20]
  TT: >120 s
[3]; [21]
  TT: >120 s
[3]; patients 1-6, during surgery, after 25250±11000 UI UFH
  TT, mean: >120 s
